For experiment [1], the target named is T1, Estrogen receptor (Homo sapiens, UniProt P03372).
T1 sequence (P03372 whole entry): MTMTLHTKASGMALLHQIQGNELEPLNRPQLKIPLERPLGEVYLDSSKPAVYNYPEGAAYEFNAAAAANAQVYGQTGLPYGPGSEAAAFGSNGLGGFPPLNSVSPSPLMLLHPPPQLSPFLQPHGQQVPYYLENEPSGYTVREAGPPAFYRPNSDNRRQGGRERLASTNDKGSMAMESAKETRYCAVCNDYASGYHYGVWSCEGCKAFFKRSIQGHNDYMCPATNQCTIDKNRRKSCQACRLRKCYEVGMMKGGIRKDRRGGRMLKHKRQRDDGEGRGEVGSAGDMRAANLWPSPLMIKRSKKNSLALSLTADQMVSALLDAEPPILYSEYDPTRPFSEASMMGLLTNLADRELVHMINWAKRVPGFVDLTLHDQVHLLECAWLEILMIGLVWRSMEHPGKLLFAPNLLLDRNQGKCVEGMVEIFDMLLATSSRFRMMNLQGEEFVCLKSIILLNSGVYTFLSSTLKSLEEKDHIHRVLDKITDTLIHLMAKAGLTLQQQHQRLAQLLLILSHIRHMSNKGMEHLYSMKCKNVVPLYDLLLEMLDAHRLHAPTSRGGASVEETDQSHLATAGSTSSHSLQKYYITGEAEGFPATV
Description: Binding affinity to human recombinant ERalpha by scintillation proximity assay

Experiment [2] concerns the target T2, Estrogen receptor beta (Homo sapiens, UniProt Q92731).
Description: Binding affinity to human recombinant ERbeta by scintillation proximity assay
For experiment [3], the target named is T1, Estrogen receptor. This is another data set of the same source.
Description: Agonist activity at human recombinant ERalpha expressed in HEK293 cells by transactivation assay
Experiment [4] has as its target T2, Estrogen receptor beta. The source holds these as a separate data set.
Description: Agonist activity at human recombinant ERbeta expressed in HEK293 cells by transactivation assay
The next experiment has as its target T3, Androgen receptor (Homo sapiens, UniProt P10275).
T3 sequence (P10275 whole entry): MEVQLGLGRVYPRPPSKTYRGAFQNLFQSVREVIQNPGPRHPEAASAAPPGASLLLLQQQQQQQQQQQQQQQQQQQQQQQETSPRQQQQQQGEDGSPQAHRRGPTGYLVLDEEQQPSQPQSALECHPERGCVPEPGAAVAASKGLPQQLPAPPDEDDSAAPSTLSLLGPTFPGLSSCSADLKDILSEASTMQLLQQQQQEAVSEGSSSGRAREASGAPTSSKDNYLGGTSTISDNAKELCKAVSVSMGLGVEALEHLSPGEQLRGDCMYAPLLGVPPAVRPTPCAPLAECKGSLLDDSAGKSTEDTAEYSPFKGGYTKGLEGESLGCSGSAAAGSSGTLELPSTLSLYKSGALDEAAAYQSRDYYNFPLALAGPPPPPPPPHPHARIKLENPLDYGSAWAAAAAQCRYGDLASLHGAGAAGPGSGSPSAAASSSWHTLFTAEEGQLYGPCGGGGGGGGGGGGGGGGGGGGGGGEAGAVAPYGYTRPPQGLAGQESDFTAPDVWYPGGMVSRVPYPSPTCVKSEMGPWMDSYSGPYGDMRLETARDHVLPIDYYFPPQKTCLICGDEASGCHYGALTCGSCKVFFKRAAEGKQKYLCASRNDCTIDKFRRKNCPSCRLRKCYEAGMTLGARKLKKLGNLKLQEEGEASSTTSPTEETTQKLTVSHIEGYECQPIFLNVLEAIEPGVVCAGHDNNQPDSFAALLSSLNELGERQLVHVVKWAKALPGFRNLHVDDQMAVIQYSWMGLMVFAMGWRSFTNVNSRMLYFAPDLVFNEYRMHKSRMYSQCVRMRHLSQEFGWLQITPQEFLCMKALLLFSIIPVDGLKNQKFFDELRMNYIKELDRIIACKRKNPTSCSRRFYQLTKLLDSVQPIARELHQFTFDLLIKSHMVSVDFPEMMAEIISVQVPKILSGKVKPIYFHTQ

T2 sequence (Q92731 whole entry): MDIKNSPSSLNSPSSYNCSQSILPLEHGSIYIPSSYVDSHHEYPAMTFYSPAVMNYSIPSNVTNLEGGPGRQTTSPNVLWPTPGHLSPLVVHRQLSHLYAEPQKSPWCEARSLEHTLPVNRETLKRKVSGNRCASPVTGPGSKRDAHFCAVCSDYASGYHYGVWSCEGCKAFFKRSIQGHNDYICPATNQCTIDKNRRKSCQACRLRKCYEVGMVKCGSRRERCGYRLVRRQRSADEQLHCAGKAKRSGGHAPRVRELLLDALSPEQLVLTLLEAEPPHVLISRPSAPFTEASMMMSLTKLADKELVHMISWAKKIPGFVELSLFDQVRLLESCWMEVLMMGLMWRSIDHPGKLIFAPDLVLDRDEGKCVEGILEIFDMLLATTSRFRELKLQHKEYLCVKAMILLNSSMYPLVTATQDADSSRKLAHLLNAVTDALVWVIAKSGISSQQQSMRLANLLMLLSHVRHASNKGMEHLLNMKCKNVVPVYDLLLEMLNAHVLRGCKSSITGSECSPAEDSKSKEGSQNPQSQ
Description for Androgen receptor: Binding affinity to androgen receptor

Broadly, the IC50 is the point on the concentration scale where inhibition reaches its midpoint. A high value points to a need for much substance. In general, EC50 refers to the concentration at which the effect is half-maximal. A low value points to higher potency in that assay. Consider `C[C@]12CC[C@H]3[C@@H](CC=C4[C@H]5CC[C@]43CC[C@@H]5O)[C@@H]1CC[C@@H]2O`, for which the half-inhibitory concentration (IC50) against Estrogen receptor [1] stood at 0.317 µM; against Estrogen receptor beta [2] it was 50 nM; against Androgen receptor, 1380 nM. In addition, the results for the EC50 at Estrogen receptor [3] and at Estrogen receptor beta [4] were 44 nM and 28 nM, respectively.

`C[C@]12CC[C@H]3[C@@H](CC=C4[C@H]5CC[C@]43CC[C@H]5O)[C@@H]1CC[C@@H]2O`: the half-inhibitory concentration (IC50) was 8.13 µM on Estrogen receptor [1], 854 nM against Estrogen receptor beta [2] and 1120 nM at Androgen receptor. Besides, the EC50 was found to be 435 nM on Estrogen receptor [3] and 198 nM at Estrogen receptor beta [4].

For `C[C@]12CC[C@H]3[C@@H](CC=C4[C@@H]5C(=O)CC[C@@]43C[C@H]5O)[C@@H]1CC[C@@H]2O`, the IC50 is greater than 10 µM at Estrogen receptor [1], greater than 10000 nM against Estrogen receptor beta [2] and greater than 1000 nM against Androgen receptor. Moreover, the EC50 on Estrogen receptor [3] and at Estrogen receptor beta [4] was greater than 1000 nM each time.

With `C[C@]12CC[C@H]3[C@@H](CC=C4[C@@H]5C(=O)CC[C@@]43C[C@@H]5O)[C@@H]1CC[C@@H]2O`, the IC50 on Estrogen receptor [1] is greater than 10 µM; against Estrogen receptor beta [2], greater than 10000 nM; against Androgen receptor, greater than 1000 nM. In addition, the concentration for a half-maximal effect (EC50) on Estrogen receptor [3] and at Estrogen receptor beta [4] was greater than 1000 nM throughout.

`C[C@]12CC[C@H]3[C@@H](CC=C4C[C@@H]5CC[C@@]43CC(=O)O5)[C@@H]1CC[C@@H]2O`: the IC50 on Estrogen receptor [1] is greater than 10 µM; at Estrogen receptor beta [2], greater than 10000 nM; at Androgen receptor, greater than 1000 nM. Further, the EC50 at Estrogen receptor [3] and at Estrogen receptor beta [4] was greater than 1000 nM in each case.

For the compound `C=C[C@]12CC[C@H](O)CC1=CC[C@H]1[C@@H]3CC[C@H](O)[C@@]3(C)CC[C@@H]12`, the IC50 against Estrogen receptor [1] is 2.24 µM. Also, the EC50 on Estrogen receptor [3] turned out to be 980 nM; at Estrogen receptor beta [4], 4 nM.

Regarding `C/C=C\[C@]12CC[C@H](O)CC1=CC[C@H]1[C@@H]3CC[C@H](O)[C@@]3(C)CC[C@@H]12`, the figures for the IC50 against Estrogen receptor [1], against Estrogen receptor beta [2] and against Androgen receptor were 1.96 µM, 16 nM and 718 nM, respectively. Besides, the EC50 on Estrogen receptor [3] amounted to 344 nM; at Estrogen receptor beta [4], 21 nM.

Regarding `C=C[C@]12CCC(=O)C=C1CC[C@H]1[C@@H]3CC[C@H](O)[C@@]3(C)CC[C@@H]12`, the IC50 against Estrogen receptor [1] is greater than 10 µM. Besides, the EC50 at Estrogen receptor [3] is greater than 1000 nM.

Take `C[C@]12CC[C@H]3[C@@H](CC=C4[C@H]5CC=C[C@]43CC[C@@H]5O)[C@@H]1CC[C@@H]2O`: the IC50 worked out at 2.24 µM against Estrogen receptor [1], 157 nM against Estrogen receptor beta [2] and 85 nM on Androgen receptor. Further, the EC50 at Estrogen receptor [3] stood at 4890 nM; on Estrogen receptor beta [4], 132 nM.

As for `CC[C@]12CC[C@H](O)CC1=CC[C@@H]1[C@@H]2CC[C@]2(C)[C@@H](O)CC[C@@H]12`, the IC50 is 2.33 µM against Estrogen receptor [1], 16 nM at Estrogen receptor beta [2] and 88 nM at Androgen receptor.

Consider `C=CC[C@@H]1C2=CC[C@H]3[C@@H]4CC[C@H](O)[C@@]4(C)CC[C@@H]3[C@@]2(C=C)CC[C@@H]1O`, for which the IC50 against Estrogen receptor [1] was greater than 10 µM; against Estrogen receptor beta [2] it was 3020 nM; against Androgen receptor it was 15 nM. Moreover, the EC50 at Estrogen receptor [3] and at Estrogen receptor beta [4] was greater than 1000 nM each time.

In the case of `C[C@]12CC[C@H]3[C@@H](CC[C@H]4[C@H]5CCC[C@]43CC[C@@H]5O)[C@@H]1CC[C@@H]2O`, the IC50 against Estrogen receptor [1] turned out to be 4.99 µM; on Estrogen receptor beta [2] it was 322 nM; against Androgen receptor, 68 nM. Moreover, the EC50 on Estrogen receptor [3] worked out at 1300 nM; on Estrogen receptor beta [4], 219 nM.

As for `C[C@]12CC[C@H]3[C@@H](CC=C4C[C@@H]5CC[C@@]43CCO5)[C@@H]1CC[C@@H]2O`, the IC50 was greater than 10 µM against Estrogen receptor [1], greater than 10000 nM on Estrogen receptor beta [2] and 710 nM on Androgen receptor. Moreover, the results for the EC50 on Estrogen receptor [3] and on Estrogen receptor beta [4] were greater than 1000 nM and 440 nM, respectively.

In the case of `C[C@]12CC[C@H]3[C@@H](CC=C4[C@H]5CC[C@]43CCC5=O)[C@@H]1CC[C@@H]2O`, the IC50 on Estrogen receptor [1] was greater than 10 µM; on Estrogen receptor beta [2], 1460 nM. Further, the half-maximal effective concentration (EC50) came to 407 nM on Estrogen receptor [3] and 86 nM on Estrogen receptor beta [4].

For the compound `C[C@]12CC[C@H]3[C@@H](CC4C5=CC(=O)CC[C@@]53C[C@H]4O)[C@@H]1CC[C@@H]2O`, the IC50 against Estrogen receptor [1] is greater than 10 µM; against Estrogen receptor beta [2], greater than 10000 nM; at Androgen receptor, greater than 1000 nM. Moreover, the EC50 at Estrogen receptor [3] and on Estrogen receptor beta [4] was greater than 1000 nM in each case.

These data come from ChEMBL document CHEMBL1139947, “Bridged androstenediol analogs as ER-beta selective SERMs” (Bioorg Med Chem Lett, 2007).
